Here are results for five molecules from patent US12286452B2, “Amphiphilic aminoglycoside connexin hemichannel inhibitors” (Texas Tech University System, priority 2018, dated 2025).

A word on the inhibition: it is the share of the control response that was lost under treatment. One may read the IC50 as the point on the concentration scale where inhibition reaches its midpoint.

Like-named read-outs stand apart in the source and are kept apart here. Some results are limits rather than exact numbers.

In one experiment the target is T1, Cx43 HCs (Homo sapiens, UniProt P17302).
T1 construct: expressed in transfected cells
T1 sequence (P17302 whole entry): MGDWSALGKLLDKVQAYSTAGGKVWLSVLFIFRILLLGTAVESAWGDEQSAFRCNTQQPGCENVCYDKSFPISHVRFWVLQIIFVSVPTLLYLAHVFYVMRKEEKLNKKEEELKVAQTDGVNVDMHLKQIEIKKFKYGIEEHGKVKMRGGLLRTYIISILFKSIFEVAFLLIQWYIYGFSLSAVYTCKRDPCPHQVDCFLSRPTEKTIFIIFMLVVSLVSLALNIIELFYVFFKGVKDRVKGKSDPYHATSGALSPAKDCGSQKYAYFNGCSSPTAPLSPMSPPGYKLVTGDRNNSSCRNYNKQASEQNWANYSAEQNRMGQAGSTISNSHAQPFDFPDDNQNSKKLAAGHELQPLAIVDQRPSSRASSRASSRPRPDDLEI
The experiment is described as follows: Cx43-dependent growth complementation assay in E. coli LB2003. It is filed as cell-based. Conditions: for inhibition at 15 µM / Cx43 inhibition (%): 15 μM; for Cx43/Cx26 Selectivity: IC50 Cx26/IC50 Cx43.

The target of another experiment is T2, human Cx26 HCs (Homo sapiens, UniProt P29033).
T2 construct: expressed in transfected cells; host or cells: E. coli LB2003 (carrying pREP4), transformed with pQE-Cx26, IPTG-induced
The experiment is described as follows: Cx26-dependent growth complementation assay in E. coli LB2003. The format is cell-based. On the procedure: These derivatives were prepared by sequential benzylation and methylation followed by reduction of azido groups or hydrogenolysis of the Bn. […] Connexin HC inhibition was conducted using a bacteria-based assay of HC function^39. In this assay, Cx26 HCs are expressed in E. coli LB2003 cells, which lack three major K^+ uptake systems (Kdp, Kup and Trk), and as a result they cannot grow in low-[K^+] media^39-41. However, growth of this E. coli strain in low-[K^+] medium can be rescued by expression of K^+-permeable channels such as connexin HCs^39, 42-43. Under the conditions of the assay (LB2003 cells expressing HCs and grown in low-K^+ medium), inhibition of the HCs reduces or abolishes growth^39, 42-43. This is a simple assay where bacterial growth in multi-well plates can be followed by measuring the absorbance at 600 nm (OD600)^29.
LB2003 cells generously provided by Dr. E. P. Bakker (Osnabruk University, Osnabruk, Germany) were transformed with the plasmid pQE-Cx26 (human Cx26 into pQE60) and pREP4. […] LB2003 cells cannot grow in low-[K^+] media because of insufficient K^+ uptake for growth due to the knockout of three key K^+ transporters (Atrk, Akup, Akdp strain)^2-4. Details and validation of the growth complementation assay have been published recently^2. In brief, competent LB2003 containing the pREP4 plasmid were transformed with pQE-Cx26. These cells were grown overnight in Luria-Bertani medium (BD, Franklin Lakes, NJ, USA) supplemented with 100 mM KCl (to allow growth) and 0.4 mg/mL ampicillin, and then washed four times with NLM (see below), to remove residual K^+ from the Luria-Bertani medium. The washed cells were resuspended in complementation growth medium to an OD600 of 0.2. NLM contained 46 mM Na2HPO4, 23 mM NaH2PO4, 8 mM (NH4)2SO4, 0.4 mM MgSO4, 0.012 mM FeSO4, 1 mM sodium citrate, 44 mM glucose and 0.006 mM thiamine hydrochloride, pH 7.0. KLM had the same composition that NLM except for the equimolar replacement of Na^+ with K^+. For growth complementation we used NLM+4 mM KCl, and Cx26 expression was induced with 0.5 mM IPTG at the time of dilution to OD600=0.2. For the assay, the cells were seeded in 96-well plates and were incubated at 30° C., with shaking at 500 rpm. OD600 was measured after 18-h incubation in a plate reader. The initial OD600=0.2 was subtracted for growth calculations. Data are presented as means±SEM. Statistically significant differences were calculated by the Student t-test for unpaired data. Data were obtained from at least 3 independent experiments, with 3 repeats per experiment.

Setting [1] is: K members, the 21st table, read-out: Cx43 % inhibition.
The mark [2] stands for this setting: Table 3, read-out: Cx243% inhibition.
[3] abbreviates: Table 6, read-out: Cx43 (% inhibition).
Setting [4] is: the 15th table, second Cx43 column, sub-head and unit not given.
The mark [5] stands for this setting: the 15th table, sub-head and unit inferred, read-out: Cx43 IC50.
Setting [6] is: the 22nd table, read-out: Cx43 IC50.
The mark [7] stands for this setting: the 24th table, read-out: Cx43 IC50.
[8] abbreviates: the 15th table, Cx26, sub-head and unit not given.
The mark [9] stands for this setting: the 15th table, Cx26, unit not given (cf. the 22nd table), read-out: Cx26 IC50.
The mark [10] stands for this setting: KI members, the 23rd table, read-out: Cx43 % inhibition.

Turning to `COc1ccc(OC[C@H]2OC(OC3C(N)CC(N)C(O[C@H]4OC(CN)[C@@H](O)C(O)C4O)[C@@H]3O)[C@H](O)C(N)C2O)cc1` (some centres unmarked) [Compound K81], the inhibition at 15 µM turned out to be 20 ± 7.4% on Cx43 HCs (setting [1]); 20 ± 7.4% on Cx43 HCs (setting [2]); 20 ± 7.4% on Cx43 HCs (setting [3]); 15.9 ± 4.2% against human Cx26 HCs (Table 3); 15.9 ± 4.2% at human Cx26 HCs (Table 6). Besides, the inhibition at 50 µM at Cx43 HCs (setting [1]) was 34.8 ± 7.8%; on Cx43 HCs (setting [2]) it was 34.8 ± 7.8%; on Cx43 HCs (setting [3]), 34.8 ± 7.8%; against human Cx26 HCs (Table 3), 36.5 ± 4.7%; against human Cx26 HCs (Table 6), 36.5 ± 4.7%.
For the molecule `NCC1O[C@H](OC2C(N)CC(N)C(OC3O[C@H](COc4ccc(Cl)cc4)C(O)C(N)[C@H]3O)[C@H]2O)C(O)C(O)[C@@H]1O` (some centres unmarked) [Compound K84], the inhibition at 15 µM is 45.8 ± 6.4% at Cx43 HCs (setting [1]), over 50% on Cx43 HCs (setting [3]), 44.4 ± 7% against human Cx26 HCs (Table 3) and 44.4 ± 7% at human Cx26 HCs (Table 6). Further, the “Cx43 inhibition (%)” value on Cx43 HCs (Table 6, listed as 8d) is 50.3 ± 1.0%. The inhibition at 50 µM at Cx43 HCs (setting [1]) came out at 76.7 ± 7.7%; on Cx43 HCs (setting [3]) it was 68.3 ± 4.6%; against human Cx26 HCs (Table 3), 69.5 ± 4.5%; on human Cx26 HCs (Table 6), 69.5 ± 4.5%. In addition, at Cx43 HCs (Table 7), the “Cx43/Cx26 Selectivity” value came to 1.93. Also, the IC50 at Cx43 HCs (Table 7, read-out: Cx43 IC50) was 8.9 ± 1.6 µM; at Cx43 HCs (setting [5]), 8.9 ± 1.6 µM; at Cx43 HCs (setting [6]) it was 8.9 ± 1.6 µM; at Cx43 HCs (setting [7]) it was 8.9 ± 1.6 µM; on human Cx26 HCs (setting [9]), 17.2 ± 3.2 µM. Besides, the “Cx43 Imax” value at Cx43 HCs (setting [4]) came to 80.6 ± 6.0; on Cx43 HCs (the 22nd table) it was 80.6 ± 6.0%; at Cx43 HCs (the 24th table) it was 80.6 ± 6.0%. In addition, the “Cx26 Imax” value on human Cx26 HCs (setting [8]) is given as 95.9 ± 10.9; at human Cx26 HCs (the 22nd table), 95.9 ± 10.9%; at human Cx26 HCs (the 24th table) it was 95.9 ± 10.9%.
Consider `CCCCCCCCCCCC(=O)NCC1O[C@H](OC2C(N)CC(N)C(OC3O[C@H](CO)C(O)C(N)[C@H]3O)[C@H]2O)C(O)C(O)[C@@H]1O` (some centres unmarked) [KI04], for which the inhibition at 15 µM on Cx43 HCs (setting [10]) was 43.9 ± 4.3%; at Cx43 HCs (setting [3]), over 50%; against human Cx26 HCs (Table 3), 16.4 ± 2.3%; against human Cx26 HCs (Table 6) it was 16.4 ± 2.3%. Further, the “Cx43 inhibition (%)” value on Cx43 HCs (Table 6, listed as 4i) is reported as 53.6 ± 4.6%. The inhibition at 50 µM worked out at 58.2 ± 3.9% on Cx43 HCs (setting [10]), 70.9 ± 2.3% at Cx43 HCs (setting [3]), 56.2 ± 6.8% against human Cx26 HCs (Table 3) and 56.2 ± 6.8% at human Cx26 HCs (Table 6). Moreover, the “Cx43/Cx26 Selectivity” value at Cx43 HCs (Table 7, listed as 4i) amounted to 6.88. The IC50 at Cx43 HCs (Table 7, read-out: Cx43 IC50) was determined as 9.7 ± 1.8 µM; at Cx43 HCs (setting [5]) it was 9.7 ± 1.8 µM; at human Cx26 HCs (setting [9]), 66.7 ± 6.9 µM. Further, the “Cx43 Imax” value at Cx43 HCs (setting [4]) was found to be 82.2 ± 5.9. For the same molecule, the “Cx26 Imax” value at human Cx26 HCs (setting [8]) was 118.0 ± 7.6.
Turning to `CCCCCCCCOC[C@H]1OC(O[C@@H]2C(N)CC(N)C(O[C@H]3OC(CN)[C@@H](O)[C@H](O)C3O)[C@@H]2O)[C@H](O)[C@H](N)C1OCCCCCCCC` (some centres unmarked) [Compound 5], the IC50 is 11.4 ± 4.3 µM on Cx43 HCs (4″,6″-disubstituted AKs, Table 5, read-out: Cx43 IC50); 26.6 ± 7.8 µM on Cx43 HCs (K46 members, the 20th table, read-out: IC50 (μM) against Cx43); 11.4 ± 4.3 µM at Cx43 HCs (the 13th table, read-out: Cx43 IC50); 13.6 ± 0.5 µM at human Cx26 HCs (4″,6″-disubstituted AKs, Table 5, read-out: Cx26 IC50); 13.6 ± 0.5 µM at human Cx26 HCs (K46 members, the 20th table, read-out: IC50 (μM) against Cx26); 13.6 ± 0.5 µM on human Cx26 HCs (read-out: IC50, inhibition of Cx26 by kanamycin A and synthetic AGs, first Table 1). The IC50 at human Cx26 HCs (the 13th table, read-out: Cx26 IC50) amounted to 13.5 ± 0.5 µM. For the same molecule, on Cx43 HCs (Table 5), the “Cx43/Cx26 Selectivity” value was 1.19. Besides, the “Cx43 Imax” value on Cx43 HCs (the 13th table) is 119 ± 8%. The “Cx26 Imax” value at human Cx26 HCs (the 13th table) came out at 94 ± 2%.
For the molecule `Cc1ccc(OC[C@H]2OC(OC3C(N)CC(N)C(O[C@H]4OC(CN)[C@@H](O)C(O)C4O)[C@@H]3O)[C@H](O)C(N)C2O)cc1` (some centres unmarked) [Compound K82], the inhibition at 15 µM at Cx43 HCs (setting [1]) is 58.4 ± 10.6%; on Cx43 HCs (setting [3]), over 50%; at human Cx26 HCs (Table 3) it was 19.3 ± 2.2%; at human Cx26 HCs (Table 6), 19.3 ± 2.2%. The “Cx43 inhibition (%)” value at Cx43 HCs (Table 6, listed as 8b) stood at 63.8 ± 6.8%. The inhibition at 50 µM on Cx43 HCs (setting [1]) was found to be 71 ± 14.1%; at Cx43 HCs (setting [3]), 76.8 ± 5.8%; against human Cx26 HCs (Table 3), 28.2 ± 4.5%; against human Cx26 HCs (Table 6), 28.2 ± 4.5%. Further, the “Cx43/Cx26 Selectivity” value on Cx43 HCs (Table 7, listed as 8b) was 7.97. Besides, the IC50 at Cx43 HCs (Table 7, read-out: Cx43 IC50) was found to be 6.2 ± 1.4 µM; on Cx43 HCs (setting [5]), 7.1 ± 1.4 µM; on Cx43 HCs (setting [6]) it was 7.1 ± 1.4 µM; on Cx43 HCs (setting [7]) it was 7.1 ± 1.4 µM; at human Cx26 HCs (Table 7, read-out: Cx26 IC50), 49.4 ± 9.3 µM. Besides, the figures for the “Cx43 Imax” value on Cx43 HCs (setting [4]), at Cx43 HCs (the 22nd table) and on Cx43 HCs (the 24th table) were 91.1 ± 11.5, 91.1 ± 11.5% and 91.1 ± 11.5%, respectively.
